Reference: patent US9382276B2, “Water-soluble O-carbonyl phosphoramidate prodrugs for therapeutic administration” (MicuRx Pharmaceuticals, Inc., priority 2014, dated 2016)
In brackets after ≈: the same amount, converted by molar mass.

Assays:
in vivo = conditions: rat, iv, 10 mg/kg
physchem = conditions: water or conventional aqueous solutions, thermodynamic from solid
[1] = pH range of about 3-9
[2] = tested on: Staphylococcus aureus strain SAU1018; experiment: mouse peritonitis infection model (survival, ED50); type: in vivo; conditions: parent drug control in same test, in 20% aqueous beta-hydroxypropylcyclodextrin (HPCD) formulation, read-out: ED50 (effective dose for survival of 50% of animals)

In the case of O=C1C=CN(c2c(F)cc(N3C[C@H](CNc4ccon4)OC3=O)c(F)c2F)CC1 [MRX-I], the AUC (in vivo) is reported as roughly 25400 ng·h/mL, the solubility (physchem) is reported as roughly 250 µg/mL (≈ 612 µM) and the “pH dependence of solubility in water” value [1] is reported as “virtually pH-independent”. It also gave an ED50 [2] of 10 mg/kg.
